The values that follow come from paper PMC12024264, “Frog Skin Peptides Hylin-a1, AR-23, and RV-23: Promising Tools Against Carbapenem-Resistant Escherichia coli and Klebsiella pneumoniae Infections” (Antibiotics, 2025).

One may read the MIC as the smallest concentration in the dilution series that meets the test's criterion for growth inhibition. A word on the MBC: it is the smallest concentration meeting the test's criterion for killing. High values mean weaker bactericidal potency, low ones greater bactericidal potency. A word on the half-life: it is how long it takes for the measured level to halve. Read a low half-life as fast loss.

Values after ≈ are worked out from the molar mass of the structure shown. Read-outs that look alike come from different tables or passages of the source. Where no end group is shown, it is not given here.

Series [1] concerns K. pneumoniae 1711. The series is described as follows: Antibiotic resistance profile of clinical isolate (Table S1). The note with it: Table S1, K. pneumoniae 1711. Type of series: cell-based, Klebsiella pneumoniae. On the procedure:
(§1) Each strain was grown in Mueller Hinton Broth (MH Broth), and 5 × 10^5 CFU/mL was used to evaluate antibacterial activity. Clinical carbapenem-resistant K. pneumoniae and E. coli isolates were collected at the AOU of Virology and Microbiology of the University of Campania “Luigi Vanvitelli”. […]
(§2) Table S1. Antibiotic resistance profile of K. pneumoniae and E. coli clinical isolates . MIC: Minimum Inhibitory
(§3) Concentration was expressed in µg/mL; S: Sensible; I: Intermediate; R: Resistant.
(§4) Antibiotic Resistance Profile of the Clinical Isolated Bacteria
(§5) Antibiotics MIC (µg/mL) Interpretation […]

Series [2] has as its system K. pneumoniae 1745. Described as above. Type of series: cell-based, Klebsiella pneumoniae. The conditions noted are these: Table S1, K. pneumoniae 1745. Here is the method:
as §1, §2, §3, §4, §5

Series [3] deals with K. pneumoniae 1746. Described as above. Type of series: cell-based, Klebsiella pneumoniae. On the procedure:
as §1, §2, §3, §4, §5

Series [4] relates to E. coli 1376. The description is as above. The format is cell-based, Escherichia coli. On the procedure:
as §1, §2, §3, §4, §5

The test system of series [5] is E. coli 1441. The description is as above. The format is cell-based, Escherichia coli. On the procedure: as §1, §2, §3, §4, §5
For series [6], the system named is E. coli 2267. The series is described as above. The format is cell-based, Escherichia coli. The conditions noted are these: Table S1, E. coli 2267. On the procedure:
as §1, §2, §3, §4, §5

The test system of series [7] is E. coli 3140. The description is as above. The format is cell-based, Escherichia coli. On the procedure:
as §1, §2, §3, §4, §5

The test system of series [8] is E. coli 716. Described as above. The format is cell-based, Escherichia coli. On the procedure:
as §1, §2, §3, §4, §5

In another series the test system is K. pneumoniae. Briefly: Checkerboard assay with meropenem.
The next series relates to E. coli. The series is described as follows: Checkerboard assay with meropenem.
The test system of a further series is HaCaT cells. The series is described as follows: MTT cytotoxicity assay on HaCaT keratinocytes. Type of series: cell-based, human. On the procedure: To evaluate their safety profile, cytotoxicity assays were performed on HaCaT keratinocytes. Cells were exposed for 20 h to peptides at doses ranging from 0.39 to 100 μM.
Figure 1 Dose–response curves for the AMPs against HaCaT cell line and CC50 (reported in μM), HillSlope, and R^2 values were obtained by the fitting of the curves. The viability effect of Hylin-a1, AR-23, and RV-23 was analyzed on HaCaT cells. The cell monolayer was treated with serial dilutions of peptides for 20 h. Untreated cells were used as a positive control, while dimethyl sulfoxide (DMSO) was used as a negative control. HillSlope: The measure of the steepness of the dose–response curve. […] R^2 (coefficient of determination) indicates how well the model fits the data. Ranges from 0 to 1, with 1 representing a perfect fit.
The cytotoxic effect of peptides was examined using 3-(4,5 dimethylthiazol-2-yl)-2,5-diphenyltetrazolium bromide (MTT), as previously described. Cell viability, expressed as a percentage, was calculated in relation to the viability of untreated cells (+). DMSO was used as negative control (−). The human keratinocyte cell line HaCaT (Cell Lines Service, CLS-, Eppelheim, Germany) was used as a cellular model to evaluate the peptides’ cytotoxicity. HaCaT cells were grown in Dulbecco’s Modified Eagle Medium (DMEM) with 4.5 g/L of glucose (Microtech, Naples, Italy) supplemented with an antibiotic solution 100× (Himedia, Naples, Italy) and 10% Fetal Bovine Serum (FBS, Microtech).
A general note: Tetrazolium assays rely on reduction of a dye to a coloured formazan, in cell work by metabolically active cells.

Another series deals with E. coli ATCC 25992. The conditions noted are these: microdilution (NCCLS), MH broth, 5 × 10^5 CFU/mL, 37 °C, 20 h, absorbance; 50 to 1.56 μM. On the procedure: (§6) The three peptides were tested for their antibacterial activity. […] As described in the Materials and Methods section, the antibacterial effect of peptides was investigated using a microdilution assay. Each concentration of AMPs was inoculated with bacteria in 96-well plates and incubated at 37 °C for 20 h. After that, MIC values were determined by analyzing absorbance and expressed as a percentage of inhibition. MBC was assessed by observing the colonies’ growth on agar plates, as described elsewhere.
(§7) Each strain was grown in Mueller Hinton Broth (MH Broth), and 5 × 10^5 CFU/mL was used to evaluate antibacterial activity. Clinical carbapenem-resistant K. pneumoniae and E. coli isolates were collected at the AOU of Virology and Microbiology of the University of Campania “Luigi Vanvitelli”.
(§8) The antimicrobial activity of Hylin-a1, AR-23, and RV-23 was investigated using a microdilution assay as reported by the National Committee on Clinical Laboratory Standards (NCCLS) guidelines against a broad spectrum of Gram-negative bacteria. […] In 96-well, the standardized bacterial inoculum (5 × 10^5 colony forming units, CFU/mL) was inoculated together with AMPs and incubated at 37 °C for 20 h. After the time of incubation, optical density (OD) was measured at TECAN, and data were expressed as a percentage of inhibition. In addition to assessing the MIC values, the bactericidal effect was also studied as reported elsewhere.

The next series relates to K. pneumoniae ATCC 10031. On the procedure: as §6, §7, §8
Series [9] deals with E. coli 1376. The note with it: carbapenemase NDM (class B), rectal swab, N/D = no antibacterial activity detected. On the procedure: as §7, §8
The subject of series [10] is E. coli 1441. The conditions noted are these: carbapenemase KPC (class A), rectal swab; microdilution, 37 °C, 20 h; N/D = no antibacterial activity detected. On the procedure: as §7, §8
In general terms: In broth dilution the organism is exposed to a series of concentrations in liquid medium.

Series [11] concerns E. coli 2267. The note with it: carbapenemase NDM (class B), rectal swab; microdilution, 37 °C, 20 h; N/D = no antibacterial activity detected. On the procedure: as §7, §8
The test system of series [12] is E. coli 3140. The note with it: carbapenemase OXA-48 (class D), urine; microdilution, 37 °C, 20 h; N/D = no antibacterial activity detected. On the procedure: as §7, §8
Series [13] concerns E. coli 716. The note with it: carbapenemases IMP1, VIM, NDM (class B), urine, N/D = no antibacterial activity detected. Here is the method: as §7, §8
For series [14], the system named is K. pneumoniae 1711. The note with it: carbapenemase KPC (class A), rectal swab; microdilution, 37 °C, 20 h; N/D = no antibacterial activity detected. Here is the method:
as §7, §8

The subject of series [15] is K. pneumoniae 1745. The note with it: carbapenemase KPC (class A), ulcer; microdilution, 37 °C, 20 h; N/D = no antibacterial activity detected. On the procedure: as §7, §8
Series [16] has as its system K. pneumoniae 1746. The conditions noted are these: carbapenemase VIM (class B), rectal swab; microdilution, 37 °C, 20 h; N/D = no antibacterial activity detected. Here is the method:
as §7, §8

The nature of a further series: Serum stability assay. The format is in vitro ADME, bovine. The conditions noted are these: 10% FBS. On the procedure: The susceptibility of Hylin-a1, AR-23, and RV-23 to proteolytic degradation in serum was evaluated, following the protocol reported in Section 4.3.
Figure 6 AMP stability in serum. Stability profiles of Hylin-a1 (red line), AR-23 (gray line), and RV-23 (black line) are reported. All stability tests were performed at least in triplicate. LC-MS analyses were performed using an Agilent 1260 Infinity II LC/MSD system (Milan, Italy). The percentages of intact peptides after different time points of incubation in serum were determined by integrating RP-HPLC peaks from the chromatograms recorded at a wavelength of 210 nm. The test was performed in triplicate, and the data are presented as mean values, with error bars representing standard deviations.
Peptides were mixed with 10% FBS at a final concentration of 0.2 mg/mL and incubated in a water bath at 37 °C. […] Then, the mixture was diluted with 0.1% TFA in H2O (1:1). Samples were characterized using LC-MS on a C18 Aeris Peptide column (100 × 2.1 mm), applying a linear gradient from 5 to 80% solvent B (0.1% TFA in CH3CN) over solvent A (0.1% TFA in water) in 15 min at a flow rate of 0.2 mL/min. All stability tests were performed at least in triplicate. LC-MS analyses were performed using an Agilent 1260 Infinity II LC/MSD system (Milan, Italy).

The mark [17] stands for this setting: Klebsiella pneumoniae, read-out: MIC.

Consider `C[C@@H](O)[C@H]1C(=O)N2C(C(=O)O)=C(S[C@@H]3CN[C@H](C(=O)N(C)C)C3)[C@H](C)[C@H]12` [Meropenem], for which the MIC with K. pneumoniae 1711 [1] (setting [17]) is over 16 µg/mL; with K. pneumoniae 1745 [2] (setting [17]), over 16 µg/mL; against K. pneumoniae 1746 [3] (Klebsiella pneumoniae, 1746) it was 1 µg/mL (≈ 2.61 µM); against E. coli 1376 [4] (Escherichia coli, 1376), over 16 µg/mL; with E. coli 1441 [5] (Escherichia coli, 1441), 1 µg/mL (≈ 2.61 µM); with E. coli 2267 [6] (Escherichia coli, read-out: MIC) it was over 16 µg/mL. For the same molecule, the MIC against E. coli 3140 [7] (Escherichia coli, 3140) was 0.5 µg/mL (≈ 1.3 µM); with E. coli 716 [8] (Escherichia coli, 716) it was over 16 µg/mL; in the series on K. pneumoniae (Klebsiella pneumoniae, read-out: MIC of meropenem), 5 µg/mL; in the series with E. coli (Escherichia coli, read-out: MIC of meropenem), 5 µg/mL. The Interpretation entry with K. pneumoniae 1711 [1] is given as “R”; in the series with K. pneumoniae 1745 [2], “R”; with K. pneumoniae 1746 [3] (Table S1, K. pneumoniae 1746), “S”; with E. coli 1376 [4] (Table S1, E. coli 1376), “R”; in the series on E. coli 1441 [5] (Table S1, E. coli 1441), “S”; in the series with E. coli 2267 [6], “R”. The Interpretation entry in the series on E. coli 3140 [7] (Table S1, E. coli 3140) is recorded as “S”; in the series on E. coli 716 [8] (Table S1, E. coli 716), “R”. In addition, the “MIC of antibiotic (meropenem) in combination” value was 0.625 µg/mL with K. pneumoniae (combined with AR23 at 3.125 μM); 0.625 µg/mL with K. pneumoniae (combined with RV-23 at 3.125 μM); 1.25 µg/mL with E. coli (combined with AR23 at 6.25 μM); 2.5 µg/mL in the series on E. coli (combined with Hylin-a1 at 3.125 μM); 2.5 µg/mL in the series with E. coli (combined with RV-23 at 6.25 μM).

On to AIGSILGALAKGLPTLISWIKNR-NH2 [AR-23], for which the “50% cytotoxic concentration (CC50)” value with HaCaT cells (HaCaT keratinocytes, 20 h exposure, 0.39 to 100 μM) amounted to 50 µM. Also, the “CC50 obtained by the fitting of the curves” value in the series on HaCaT cells (HaCaT, 20 h, Figure 1) was determined as 52.25 µM. The MIC came to 25 µM against E. coli ATCC 25992; 6.25 µM against K. pneumoniae ATCC 10031 (microdilution (NCCLS), MH broth, 5 × 10^5 CFU/mL, 37 °C, 20 h, absorbance, 50 to 1.56 μM); 25 µM in the series on E. coli 1376 [9] (microdilution, 37 °C, 20 h); 25 µM against E. coli 1441 [10]; 25 µM against E. coli 2267 [11]; 50 µM with E. coli 3140 [12]. Also, the minimum inhibitory concentration (MIC) with E. coli 716 [13] (microdilution, 37 °C, 20 h) worked out at 25 µM; in the series with K. pneumoniae 1711 [14], 50 µM; with K. pneumoniae 1745 [15], 50 µM; with K. pneumoniae 1746 [16], 25 µM. For the same molecule, the MBC against K. pneumoniae ATCC 10031 (colonies' growth on agar plates after microdilution, N/D = not detected antibacterial activity) is 25 µM; in the series with E. coli 1376 [9], 50 µM; in the series on E. coli 716 [13] it was 50 µM. Further, the “percentage of intact fragments, almost constant up to 24 h” value in “Serum stability assay” (0.2 mg/mL, 37 °C, RP-HPLC peaks at 210 nm, mean of triplicate, after the first 2 h up to 24 h) was “around 30%”. Also, the half-life in the series “Serum stability assay” (serum, peptide 0.2 mg/mL, 37 °C water bath, ethanol precipitation, LC-MS, RP-HPLC peak integration at 210 nm, at least triplicate) is under 2 h.
